This note sets out measurements from ChEMBL document CHEMBL4477228, “Discovery of 2-((3-cyanopyridin-2-yl)thio)acetamides as human lactate dehydrogenase A inhibitors to reduce the growth of MG-63 osteosarcoma cells: Virtual screening and biological validation” (Bioorg Med Chem Lett, 2016).

The structures appear in SMILES notation. Calls of active or inactive are those of the source. The rule behind the calls is not given here.

The term IC50 denotes the point on the concentration scale where inhibition reaches its midpoint. Usually EC50 stands for the concentration needed to bring the measured effect to its halfway point.

Assay [1] has as its target T1, L-lactate dehydrogenase A chain (Homo sapiens, UniProt P00338). In words: Inhibition of human LDHA assessed as conversion of pyruvate to lactate measuring disappearance of NADH after 10 mins by fluorescence assay.
The test system of assay [2] is MG-63. Briefly: Cytotoxicity of human MG63 cells assessed as cell growth inhibition after 72 hrs by MTT assay. It is filed as functional, cell-based. For orientation: Formazan colour is commonly taken as a measure of viable cells.
The target in assay [3] is T1, L-lactate dehydrogenase A chain. Briefly: Inhibition of human LDHA in MG63 cells assessed as reduction in lactate formation at 20 uM after 12 hrs. Format: cell-based.
Assay [4] deals with MG-63. In words: Induction of apoptosis in human MG63 cells assessed as viable cells at 2 uM after 12 hrs by Annexin V-FITC/propidium iodide staining based flow cytometry (reference value: 95.8 %). It is filed as functional. Particulars: MG-63, 12 h, read-out: Activity. (In general: Flow cytometry measures light scatter and fluorescence of single cells or particles in a stream.)

Assay [5] concerns MG-63. In words: Induction of apoptosis in human MG63 cells assessed as early apoptotic cells at 2 uM after 12 hrs by Annexin V-FITC/propidium iodide staining based flow cytometry (reference value: 0.4 %). It is filed as functional.
Assay [6] relates to MG-63. In words: Induction of apoptosis in human MG63 cells assessed as late apoptotic cells at 2 uM after 12 hrs by Annexin V-FITC/propidium iodide staining based flow cytometry (reference value: 3.2 %). It is filed as functional.
In assay [7] the test system is MG-63. Briefly: Induction of apoptosis in human MG63 cells assessed as necrotic cells at 2 uM after 12 hrs by Annexin V-FITC/propidium iodide staining based flow cytometry (reference value: 0.5 %). It is filed as functional.
In assay [8] the test system is MG-63. Briefly: Induction of apoptosis in human MG63 cells assessed as viable cells at 5 uM after 12 hrs by Annexin V-FITC/propidium iodide staining based flow cytometry (reference value: 95.8 %). It is filed as functional. The settings on record: MG-63, 12 h, read-out: Activity.
The test system of assay [9] is MG-63. In words: Induction of apoptosis in human MG63 cells assessed as early apoptotic cells at 5 uM after 12 hrs by Annexin V-FITC/propidium iodide staining based flow cytometry (reference value: 0.4 %). Format: functional.
The test system of assay [10] is MG-63. In words: Induction of apoptosis in human MG63 cells assessed as late apoptotic cells at 5 uM after 12 hrs by Annexin V-FITC/propidium iodide staining based flow cytometry (reference value: 3.2 %). Format: functional.
Assay [11] has as its system MG-63. Briefly: Induction of apoptosis in human MG63 cells assessed as necrotic cells at 5 uM after 12 hrs by Annexin V-FITC/propidium iodide staining based flow cytometry (reference value: 0.5 %). It is filed as functional.
For assay [12], the system named is MG-63. In words: Induction of apoptosis in human MG63 cells assessed as viable cells at 10 uM after 12 hrs by Annexin V-FITC/propidium iodide staining based flow cytometry (reference value: 95.8 %). Format: functional. The settings on record: MG-63, 12 h, read-out: Activity.
Assay [13] relates to MG-63. In words: Induction of apoptosis in human MG63 cells assessed as early apoptotic cells at 10 uM after 12 hrs by Annexin V-FITC/propidium iodide staining based flow cytometry (reference value: 0.4 %). Format: functional.
Assay [14] relates to MG-63. In words: Induction of apoptosis in human MG63 cells assessed as late apoptotic cells at 10 uM after 12 hrs by Annexin V-FITC/propidium iodide staining based flow cytometry (reference value: 3.2 %). Format: functional.
For assay [15], the system named is MG-63. In words: Induction of apoptosis in human MG63 cells assessed as necrotic cells at 10 uM after 12 hrs by Annexin V-FITC/propidium iodide staining based flow cytometry (reference value: 0.5 %). Format: functional.
For assay [16], the system named is MG-63. In words: Induction of apoptosis in human MG63 cells assessed as viable cells at 10 uM after 6 hrs by Annexin V-FITC/propidium iodide staining based flow cytometry (reference value: 95.8 %). Format: functional. The settings on record: MG-63, 6 h, read-out: Activity.
In assay [17] the test system is MG-63. Briefly: Induction of apoptosis in human MG63 cells assessed as early apoptotic cells at 10 uM after 6 hrs by Annexin V-FITC/propidium iodide staining based flow cytometry (reference value: 0.4 %). It is filed as functional.
The test system of assay [18] is MG-63. In words: Induction of apoptosis in human MG63 cells assessed as late apoptotic cells at 10 uM after 6 hrs by Annexin V-FITC/propidium iodide staining based flow cytometry (reference value: 3.2 %). It is filed as functional.
For assay [19], the system named is MG-63. Briefly: Induction of apoptosis in human MG63 cells assessed as necrotic cells at 10 uM after 6 hrs by Annexin V-FITC/propidium iodide staining based flow cytometry (reference value: 0.5 %). Format: functional.
Assay [20] concerns MG-63. In words: Induction of apoptosis in human MG63 cells assessed as viable cells at 10 uM after 24 hrs by Annexin V-FITC/propidium iodide staining based flow cytometry (reference value: 95.8 %). It is filed as functional. The settings on record: MG-63, 24 h, read-out: Activity.
Assay [21] deals with MG-63. In words: Induction of apoptosis in human MG63 cells assessed as early apoptotic cells at 10 uM after 24 hrs by Annexin V-FITC/propidium iodide staining based flow cytometry (reference value: 0.4 %). Format: functional.
Assay [22] relates to MG-63. In words: Induction of apoptosis in human MG63 cells assessed as late apoptotic cells at 10 uM after 24 hrs by Annexin V-FITC/propidium iodide staining based flow cytometry (reference value: 3.2 %). It is filed as functional.
Assay [23] relates to MG-63. Briefly: Induction of apoptosis in human MG63 cells assessed as necrotic cells at 10 uM after 24 hrs by Annexin V-FITC/propidium iodide staining based flow cytometry (reference value: 0.5 %). Format: functional.
For assay [24], the system named is MG-63. Briefly: Induction of apoptosis in human MG63 cells after 12 hrs by Annexin V-FITC/propidium iodide staining based flow cytometry. Format: functional, cell-based.
For assay [25], the system named is MG-63. Briefly: Induction of apoptosis in human MG63 cells at 10 uM by Annexin V-FITC/propidium iodide staining based flow cytometry. Format: functional, cell-based. The settings on record: TDE = time-dependent effect.
The target in assay [26] is T1, L-lactate dehydrogenase A chain. Briefly: Inhibition of human LDHA in MG63 cells assessed as reduction in lactate formation after 12 hrs. Format: cell-based.
Where [27] appears, read: Homo sapiens, MG-63, 72 h, read-out: EC50.

`COc1ccc(-c2cc(-c3ccc(OC)cc3)c(C#N)c(SCC(=O)Nc3ccc(C)c(C)c3)n2)cc1`: the IC50 in assay [1] was greater than 100 µM. Further, the EC50 entry in the assay with MG-63 [2] (mg-63) is “Not Active”.

`COc1ccc(-c2cc(-c3ccc(OC)cc3)c(C#N)c(SCC(=O)Nc3c(C)cccc3C)n2)cc1`: the IC50 in assay [1] was 22.5 µM. Further, the EC50 in the assay with MG-63 [2] (setting [27]) is 35.4 µM.

For the molecule `COc1ccc(-c2cc(-c3ccccc3)c(C#N)c(SCC(=O)Nc3cc(C)cc(C)c3)n2)cc1`, in [1], the IC50 was determined as 6.59 µM. The EC50 in the assay on MG-63 [2] (setting [27]) is 5.78 µM.

With `COc1ncc(-c2ccc3c(Nc4cccc(C(=O)O)c4)c(S(N)(=O)=O)cnc3c2)c(OC)n1`, the IC50 in [1] was found to be 7.4 µM. Besides, the EC50 in the assay with MG-63 [2] (setting [27]) amounted to 28.4 µM. Also, in [3], the inhibition result is “Active”.

With `Cc1ccc(-c2cc(-c3ccc(F)cc3)nc(SCC(=O)Nc3cccc(C)c3)c2C#N)cc1`, the IC50 in [1] is 3.4 µM. For the same molecule, the EC50 with MG-63 [2] (setting [27]) was found to be 6.72 µM.

With `CCc1ccccc1NC(=O)CSc1nc(-c2ccc(OC)cc2)cc(-c2ccc(OC)cc2)c1C#N`, the IC50 in assay [1] amounted to 1.24 µM. Moreover, in the assay with MG-63 [2] (setting [27]), the EC50 stood at 0.98 µM. Further, the viability at 2 µM in the assay with MG-63 [4] is 91%. In addition, the Activity in the assay with MG-63 [5] worked out at 2%; in the assay on MG-63 [6] it was 6.5%; in the assay with MG-63 [7], 0.4%; with MG-63 [9], 0.7%; in the assay with MG-63 [10], 10.3%; in the assay with MG-63 [11] it was 0.8%. Further, the Activity is 2.8% in the assay with MG-63 [13]; 14.1% in the assay on MG-63 [14]; 0.4% with MG-63 [15]; 5% with MG-63 [17]; 8.1% with MG-63 [18]; 0.8% in the assay on MG-63 [19]. In addition, the Activity is 3.1% with MG-63 [21]; 23.5% in the assay with MG-63 [22]; 0.3% in the assay with MG-63 [23]; “Dose-dependent effect” with MG-63 [24]; “Tde” with MG-63 [25]. In addition, the viability at 5 µM in the assay with MG-63 [8] amounted to 88.2%. Also, the viability at 10 µM with MG-63 [12] stood at 82.7%; with MG-63 [16], 86.1%; with MG-63 [20], 73.1%. The inhibition entry in assay [26] is “Dose-dependent effect”.
